Data published in ChEMBL document CHEMBL5724914, “Linking interpersonal differences in gut microbiota composition and drug biotransformation activity” (2024).

assay: (§1) The drug is tested on WLS-038 corresponding to human gut metagenome with ENA study accession number: PRJEB37062 and ENA sample accession number: ERS12561745 for biotransformation under anaerobic condition. The drug concentrations were measured over 9 timepoints collected between 0 and 24 hours of incubation by liquid-chromatography-coupled mass spectrometry (LC–MS); settings: 2 µM
Also: call rule not given here.

Structure (SMILES) | Bacterial Biotransformation
CCN(CC)C(=O)C1(c2ccccc2)CC1CN (stereo not given) | Compound NOT metabolized
Nc1nc(NC2CC2)c2ncn([C@H]3C=C[C@@H](CO)C3)c2n1.Nc1nc(NC2CC2)c2ncn([C@H]3C=C[C@@H](CO)C3)c2n1.O=S(=O)(O)O [ABACAVIR SULFATE] | Compound NOT metabolized

assay: as §1, with “Z-029” for “WLS-038”, “rat” for “human”, “ERS12561828” for “ERS12561745”; settings: 2 µM

Structure (SMILES) | Bacterial Biotransformation
CCN(CC)C(=O)C1(c2ccccc2)CC1CN (stereo not given) | Compound NOT metabolized
Nc1nc(NC2CC2)c2ncn([C@H]3C=C[C@@H](CO)C3)c2n1.Nc1nc(NC2CC2)c2ncn([C@H]3C=C[C@@H](CO)C3)c2n1.O=S(=O)(O)O [ABACAVIR SULFATE] | Compound NOT metabolized

assay: as §1, with “Z-024” for “WLS-038”, “pig” for “human”, “ERS12561823” for “ERS12561745”; settings: 2 µM

Structure (SMILES) | Bacterial Biotransformation
CCN(CC)C(=O)C1(c2ccccc2)CC1CN (stereo not given) | Compound NOT metabolized
Nc1nc(NC2CC2)c2ncn([C@H]3C=C[C@@H](CO)C3)c2n1.Nc1nc(NC2CC2)c2ncn([C@H]3C=C[C@@H](CO)C3)c2n1.O=S(=O)(O)O [ABACAVIR SULFATE] | Compound NOT metabolized

settings: human gut metagenome, 24 h, 2 µM

Structure (SMILES) | Bacterial Biotransformation
CCN(CC)C(=O)C1(c2ccccc2)CC1CN (stereo not given) | Compound NOT metabolized
Nc1nc(NC2CC2)c2ncn([C@H]3C=C[C@@H](CO)C3)c2n1.Nc1nc(NC2CC2)c2ncn([C@H]3C=C[C@@H](CO)C3)c2n1.O=S(=O)(O)O [ABACAVIR SULFATE] | Compound metabolized

assay: as §1, with “Z-027” for “WLS-038”, “to” for “to human gut”, “ERS12561826” for “ERS12561745”; settings: 2 µM

Structure (SMILES) | Bacterial Biotransformation
CCN(CC)C(=O)C1(c2ccccc2)CC1CN (stereo not given) | Compound NOT metabolized
Nc1nc(NC2CC2)c2ncn([C@H]3C=C[C@@H](CO)C3)c2n1.Nc1nc(NC2CC2)c2ncn([C@H]3C=C[C@@H](CO)C3)c2n1.O=S(=O)(O)O [ABACAVIR SULFATE] | Compound NOT metabolized

settings: human gut metagenome, 24 h, 2 µM; remark: another data set of the same source

Structure (SMILES) | Bacterial Biotransformation
CCN(CC)C(=O)C1(c2ccccc2)CC1CN (stereo not given) | Compound NOT metabolized
Nc1nc(NC2CC2)c2ncn([C@H]3C=C[C@@H](CO)C3)c2n1.Nc1nc(NC2CC2)c2ncn([C@H]3C=C[C@@H](CO)C3)c2n1.O=S(=O)(O)O [ABACAVIR SULFATE] | Compound metabolized

settings: human gut metagenome, 24 h, 2 µM; remark: another data set of the same source

Structure (SMILES) | Bacterial Biotransformation
CCN(CC)C(=O)C1(c2ccccc2)CC1CN (stereo not given) | Compound NOT metabolized
Nc1nc(NC2CC2)c2ncn([C@H]3C=C[C@@H](CO)C3)c2n1.Nc1nc(NC2CC2)c2ncn([C@H]3C=C[C@@H](CO)C3)c2n1.O=S(=O)(O)O [ABACAVIR SULFATE] | Compound NOT metabolized

assay: as §1, with “Z-002” for “WLS-038”, “rabbit” for “human”, “ERS12561802” for “ERS12561745”; settings: 2 µM

Structure (SMILES) | Bacterial Biotransformation
CCN(CC)C(=O)C1(c2ccccc2)CC1CN (stereo not given) | Compound NOT metabolized
Nc1nc(NC2CC2)c2ncn([C@H]3C=C[C@@H](CO)C3)c2n1.Nc1nc(NC2CC2)c2ncn([C@H]3C=C[C@@H](CO)C3)c2n1.O=S(=O)(O)O [ABACAVIR SULFATE] | Compound metabolized

settings: human gut metagenome, 24 h, 2 µM; remark: another data set of the same source

Structure (SMILES) | Bacterial Biotransformation
CCN(CC)C(=O)C1(c2ccccc2)CC1CN (stereo not given) | Compound NOT metabolized
Nc1nc(NC2CC2)c2ncn([C@H]3C=C[C@@H](CO)C3)c2n1.Nc1nc(NC2CC2)c2ncn([C@H]3C=C[C@@H](CO)C3)c2n1.O=S(=O)(O)O [ABACAVIR SULFATE] | Compound NOT metabolized

settings: human gut metagenome, 24 h, 2 µM; remark: another data set of the same source

Structure (SMILES) | Bacterial Biotransformation
CCN(CC)C(=O)C1(c2ccccc2)CC1CN (stereo not given) | Compound NOT metabolized
Nc1nc(NC2CC2)c2ncn([C@H]3C=C[C@@H](CO)C3)c2n1.Nc1nc(NC2CC2)c2ncn([C@H]3C=C[C@@H](CO)C3)c2n1.O=S(=O)(O)O [ABACAVIR SULFATE] | Compound metabolized

settings: human gut metagenome, 24 h, 2 µM; remark: another data set of the same source

Structure (SMILES) | Bacterial Biotransformation
CCN(CC)C(=O)C1(c2ccccc2)CC1CN (stereo not given) | Compound NOT metabolized
Nc1nc(NC2CC2)c2ncn([C@H]3C=C[C@@H](CO)C3)c2n1.Nc1nc(NC2CC2)c2ncn([C@H]3C=C[C@@H](CO)C3)c2n1.O=S(=O)(O)O [ABACAVIR SULFATE] | Compound NOT metabolized

settings: human gut metagenome, 24 h, 2 µM; remark: another data set of the same source

Structure (SMILES) | Bacterial Biotransformation
CCN(CC)C(=O)C1(c2ccccc2)CC1CN (stereo not given) | Compound NOT metabolized
Nc1nc(NC2CC2)c2ncn([C@H]3C=C[C@@H](CO)C3)c2n1.Nc1nc(NC2CC2)c2ncn([C@H]3C=C[C@@H](CO)C3)c2n1.O=S(=O)(O)O [ABACAVIR SULFATE] | Compound metabolized

assay: as §1, with “WLS-069” for “WLS-038”, “ERS12561748” for “ERS12561745”; settings: 2 µM

Structure (SMILES) | Bacterial Biotransformation
CCN(CC)C(=O)C1(c2ccccc2)CC1CN (stereo not given) | Compound NOT metabolized
Nc1nc(NC2CC2)c2ncn([C@H]3C=C[C@@H](CO)C3)c2n1.Nc1nc(NC2CC2)c2ncn([C@H]3C=C[C@@H](CO)C3)c2n1.O=S(=O)(O)O [ABACAVIR SULFATE] | Compound metabolized

assay: as §1, with “Z-012” for “WLS-038”, “to” for “to human gut”, “ERS12561812” for “ERS12561745”; settings: 2 µM

Structure (SMILES) | Bacterial Biotransformation
CCN(CC)C(=O)C1(c2ccccc2)CC1CN (stereo not given) | Compound NOT metabolized
Nc1nc(NC2CC2)c2ncn([C@H]3C=C[C@@H](CO)C3)c2n1.Nc1nc(NC2CC2)c2ncn([C@H]3C=C[C@@H](CO)C3)c2n1.O=S(=O)(O)O [ABACAVIR SULFATE] | Compound NOT metabolized

settings: human gut metagenome, 24 h, 2 µM; remark: another data set of the same source

Structure (SMILES) | Bacterial Biotransformation
CCN(CC)C(=O)C1(c2ccccc2)CC1CN (stereo not given) | Compound NOT metabolized
Nc1nc(NC2CC2)c2ncn([C@H]3C=C[C@@H](CO)C3)c2n1.Nc1nc(NC2CC2)c2ncn([C@H]3C=C[C@@H](CO)C3)c2n1.O=S(=O)(O)O [ABACAVIR SULFATE] | Compound metabolized

assay: as §1, with “Z-016” for “WLS-038”, “mouse” for “human”, “ERS12561815” for “ERS12561745”; settings: 2 µM

Structure (SMILES) | Bacterial Biotransformation
CCN(CC)C(=O)C1(c2ccccc2)CC1CN (stereo not given) | Compound NOT metabolized
Nc1nc(NC2CC2)c2ncn([C@H]3C=C[C@@H](CO)C3)c2n1.Nc1nc(NC2CC2)c2ncn([C@H]3C=C[C@@H](CO)C3)c2n1.O=S(=O)(O)O [ABACAVIR SULFATE] | Compound NOT metabolized

assay: as §1, with “Z-011” for “WLS-038”, “mouse” for “human”, “ERS12561811” for “ERS12561745”; settings: 2 µM

Structure (SMILES) | Bacterial Biotransformation
CCN(CC)C(=O)C1(c2ccccc2)CC1CN (stereo not given) | Compound NOT metabolized
Nc1nc(NC2CC2)c2ncn([C@H]3C=C[C@@H](CO)C3)c2n1.Nc1nc(NC2CC2)c2ncn([C@H]3C=C[C@@H](CO)C3)c2n1.O=S(=O)(O)O [ABACAVIR SULFATE] | Compound metabolized

assay: as §1, with “WLS-098” for “WLS-038”, “ERS12561754” for “ERS12561745”; settings: 2 µM

Structure (SMILES) | Bacterial Biotransformation
CCN(CC)C(=O)C1(c2ccccc2)CC1CN (stereo not given) | Compound NOT metabolized
Nc1nc(NC2CC2)c2ncn([C@H]3C=C[C@@H](CO)C3)c2n1.Nc1nc(NC2CC2)c2ncn([C@H]3C=C[C@@H](CO)C3)c2n1.O=S(=O)(O)O [ABACAVIR SULFATE] | Compound metabolized

assay: as §1, with “WLS-240” for “WLS-038”, “ERS12561773” for “ERS12561745”; settings: 2 µM

Structure (SMILES) | Bacterial Biotransformation
CCN(CC)C(=O)C1(c2ccccc2)CC1CN (stereo not given) | Compound NOT metabolized
Nc1nc(NC2CC2)c2ncn([C@H]3C=C[C@@H](CO)C3)c2n1.Nc1nc(NC2CC2)c2ncn([C@H]3C=C[C@@H](CO)C3)c2n1.O=S(=O)(O)O [ABACAVIR SULFATE] | Compound metabolized

settings: human gut metagenome, 24 h, 2 µM; remark: another data set of the same source

Structure (SMILES) | Bacterial Biotransformation
CCN(CC)C(=O)C1(c2ccccc2)CC1CN (stereo not given) | Compound NOT metabolized
Nc1nc(NC2CC2)c2ncn([C@H]3C=C[C@@H](CO)C3)c2n1.Nc1nc(NC2CC2)c2ncn([C@H]3C=C[C@@H](CO)C3)c2n1.O=S(=O)(O)O [ABACAVIR SULFATE] | Compound metabolized
